Source: the NIST ThermoML archive (doi:10.1016/j.jct.2012.05.013)

What was measured:
[1] = for vapor or sublimation pressure: Liquid, Closed cell (Static) method
[2] = molar enthalpy of vaporization or sublimation; settings: 298.15 K; Crystal; Static calorimetry
[3] = Molar enthalpy of transition or fusion; settings: Crystal; DSC

CN(C)c1cccc2cccc(N(C)C)c12 [1,8-bis(dimethylamino)naphthalene]
[1]
Settings	vapor or sublimation pressure [kPa]
322.96 K	0.00189
327.93 K	0.00285
332.9 K	0.00428
337.88 K	0.00638
342.85 K	0.00921
347.82 K	0.01325
352.78 K	0.01867
357.73 K	0.02622
362.69 K	0.03643
367.65 K	0.0494
372.6 K	0.06696
377.55 K	0.08952
382.51 K	0.1184

Settings	Triple point temperature [K]
[1], Crystal, DTA	322.2

Settings	Molar enthalpy of transition or fusion [kcal/mol]	molar enthalpy [kcal/mol]
[2]	–	22.4
[3]	4.18	–
